Source: patent publication US10933063B2 (priority 2017, dated 2021)

biological target: T1, BTK (Homo sapiens (Human), UniProt Q06187); experiment: not given; settings: read-out: BTK Inhibition
T1 sequence (Q06187 whole entry, looked up, species assumed): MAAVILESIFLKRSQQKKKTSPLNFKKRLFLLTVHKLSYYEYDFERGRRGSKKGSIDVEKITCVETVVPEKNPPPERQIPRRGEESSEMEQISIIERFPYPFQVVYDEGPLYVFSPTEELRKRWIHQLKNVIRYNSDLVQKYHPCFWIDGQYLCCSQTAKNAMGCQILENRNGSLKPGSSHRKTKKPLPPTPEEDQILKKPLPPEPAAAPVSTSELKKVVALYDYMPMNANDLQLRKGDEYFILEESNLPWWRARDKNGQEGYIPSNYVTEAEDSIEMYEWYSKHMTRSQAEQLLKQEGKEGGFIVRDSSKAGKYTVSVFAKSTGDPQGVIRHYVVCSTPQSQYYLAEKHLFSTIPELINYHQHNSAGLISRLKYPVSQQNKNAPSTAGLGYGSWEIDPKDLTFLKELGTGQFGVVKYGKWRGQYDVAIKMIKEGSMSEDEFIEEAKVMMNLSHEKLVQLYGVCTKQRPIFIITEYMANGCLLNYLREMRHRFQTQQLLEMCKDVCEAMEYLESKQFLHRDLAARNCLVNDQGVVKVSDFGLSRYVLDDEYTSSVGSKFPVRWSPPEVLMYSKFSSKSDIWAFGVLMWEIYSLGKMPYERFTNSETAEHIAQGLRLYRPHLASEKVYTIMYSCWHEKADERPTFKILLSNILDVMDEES

Compound	IC50 [nM]
C=CC(=O)N1CCC[C@H]1c1nc(-c2ccc(Oc3cccc(OC)c3F)cc2)c2cncc(C)n12 [Example 62, (S)-1-(2-(1-(4-(2-fluoro-3-methoxyphenoxy)phenyl)-5-methylimidazo[1,5-a]pyrazin-3-yl)pyrrolidin-1-yl)prop-2-en-1-one]	< 10
C=CC(=O)N1CC[C@@H](c2nc(-c3ccc(Oc4cccc(OC)c4F)cc3)c3cnccn23)C1 [Example 68, (R)-1-(3-(1-(4-(2-fluoro-3-methoxyphenoxy)phenyl)imidazo[1,5-a]pyrazin-3-yl)pyrrolidin-1-yl)prop-2-en-1-one]	< 10
CC#CC(=O)N1CC[C@@H](c2nc(-c3ccc(Oc4cccc(OC)c4F)cc3)c3cnccn23)C1 [Example 69, (R)-1-(3-(1-(4-(2-fluoro-3-methoxyphenoxy)phenyl)imidazo[1,5-a]pyrazin-3-yl)pyrrolidin-1-yl)but-2-yn-1-one]	< 10
C=CC(=O)N1CC[C@@H](c2nc(-c3ccc(Oc4cccc(OC)c4F)cc3)c3cncc(OC4CCOC4)n23)C1 (stereo partly drawn) [Example 98, 1-((3R)-3-(1-(4-(2-fluoro-3-methoxyphenoxy)phenyl)-5-((tetrahydrofuran-3-yl)oxy)imidazo[1,5-a]pyrazin-3-yl)pyrrolidin-1-yl)prop-2-en-1-one]	< 10
CCCCOc1cncc2c(-c3ccc(Oc4cccc(OC)c4F)cc3)nc([C@@H]3CCN(Cc4ccccc4)C3)n12 [Example 102, (R)-3-(1-benzylpyrrolidin-3-yl)-5-butoxy-1-(4-(2-fluoro-3-methoxyphenoxy)phenyl)imidazo[1,5-a]pyrazine]	> 10000
C=CC(=O)N1CC[C@@H](c2nc(-c3ccc(Oc4cccc(OC)c4F)cc3)c3cncc(OCCC)n23)C1 [Example 95, (R)-1-(3-(1-(4-(2-fluoro-3-methoxyphenoxy)phenyl)-5-propoxyimidazo[1,5-a]pyrazin-3-yl)pyrrolidin-1-yl)prop-2-en-1-one]	< 10
C=CC(=O)N1CCC[C@H]1c1nc(-c2ccc(Oc3cccc(OC)c3C)cc2)c2cnccn12 [Example 29, (S)-1-(2-(1-(4-(3-methoxy-2-methylphenoxy)phenyl)imidazo[1,5-a]pyrazin-3-yl)pyrrolidin-1-yl)prop-2-en-1-one]	< 10
CN(C)C(=O)N1CCCC[C@H]1c1nc(-c2ccc(C(=O)Nc3cc(C(F)(F)F)ccn3)cc2)c2c(C(F)(F)F)nccn12 [Example 216, (S)-N,N-dimethyl-2-(8-(trifluoromethyl)-1-(4-((4-(trifluoromethyl)pyridin-2-yl)carbamoyl)phenyl)imidazo[1,5-a]pyrazin-3-yl)piperidine-1-carboxamide]	> 10000
C=CC(=O)N1CCC[C@H]1c1nc(-c2ccc(Oc3cccc(Cl)c3)cc2)c2cnccn12 [Example 28, (S)-1-(2-(1-(4-(3-chlorophenoxy)phenyl)imidazo[1,5-a]pyrazin-3-yl)pyrrolidin-1-yl)prop-2-en-1-one]	< 10
C=CC(=O)N1CCC[C@H]1c1nc(-c2ccc(Oc3cccc(OC)c3F)cc2)c2cncc(OC)n12 [Example 82, (S)-1-(2-(1-(4-(2-fluoro-3-methoxyphenoxy)phenyl)-5-methoxyimidazo[1,5-a]pyrazin-3-yl)pyrrolidin-1-yl)prop-2-en-1-one]	< 10
CC#CC(=O)N1CCC[C@H]1c1nc(-c2ccc(Oc3cccc(OC)c3F)cc2)c2c(C(N)=O)nccn12 [Example 38, (S)-3-(1-(but-2-ynoyl)pyrrolidin-2-yl)-1-(4-(2-fluoro-3-methoxyphenoxy)phenyl)imidazo[1,5-a]pyrazine-8-carboxamide]	> 10000
CC#CC(=O)N1CC[C@@H](c2nc(-c3ccc(Oc4cccc(OC)c4F)cc3)c3cncc(OC)n23)C1 [Example 86, (R)-1-(3-(1-(4-(2-fluoro-3-methoxyphenoxy)phenyl)-5-methoxyimidazo[1,5-a]pyrazin-3-yl)pyrrolidin-1-yl)but-2-yn-1-one]	< 10
C=CC(=O)N1CCCC[C@H]1c1nc(-c2ccc(Oc3cccc(OC)c3)cc2)c2c(C)nccn12 [Example 48, (S)-1-(2-(1-(4-(3-methoxyphenoxy)phenyl)-8-methylimidazo[1,5-a]pyrazin-3-yl)piperidin-1-yl)prop-2-en-1-one]	< 10
C=CC(=O)N1CCCC[C@H]1c1nc(-c2ccc(Oc3cccc(C)c3)cc2)c2c(C)nccn12 [Example 40, (S)-1-(2-(8-methyl-1-(4-(m-tolyloxy)phenyl)imidazo[1,5-a]pyrazin-3-yl)piperidin-1-yl)prop-2-en-1-one]	< 10
C=CC(=O)N1CC[C@@H](c2nc(-c3ccc(Oc4cccc(OC)c4F)cc3)c3cncc(OC4CCC4)n23)C1 [Example 100, (R)-1-(3-(5-cyclobutoxy-1-(4-(2-fluoro-3-methoxyphenoxy)phenyl)imidazo[1,5-a]pyrazin-3-yl)pyrrolidin-1-yl)prop-2-en-1-one]	< 10
CC#CC(=O)N1CC[C@@H](c2nc(-c3ccc(Oc4cccc(OC)c4F)cc3)c3c(C)nccn23)C1 [Example 92, (R)-1-(3-(1-(4-(2-fluoro-3-methoxyphenoxy)phenyl)-8-methylimidazo[1,5-a]pyrazin-3-yl)pyrrolidin-1-yl)but-2-yn-1-one]	< 10
CC#CC(=O)N1CCCC[C@H]1c1nc(-c2ccc(Oc3cccc(OC)c3F)cc2)c2c(C(F)(F)F)nccn12 [Example 122, (S)-1-(2-(1-(4-(2-fluoro-3-methoxyphenoxy)phenyl)-8-(trifluoromethyl)imidazo[1,5-a]pyrazin-3-yl)piperidin-1-yl)but-2-yn-1-one]	> 10000
C=CC(=O)N1CC[C@@H](c2nc(-c3ccc(C(=O)Nc4ccccn4)cc3)c3cncc(OCC)n23)C1 [Example 194, (R)-4-(3-(1-acryloylpyrrolidin-3-yl)-5-ethoxyimidazo [1,5-a]pyrazin-1-yl)-N-(pyridin-2-yl)benzamide]	< 10
CC#CC(=O)N1CC[C@@H](c2nc(-c3ccc(Oc4cccc(OC)c4F)cc3)c3c(C(N)=O)nccn23)C1 [Example 108, (R)-3-(1-(but-2-ynoyl)pyrrolidin-3-yl)-1-(4-(2-fluoro-3-methoxyphenoxy)phenyl)imidazo[1,5-a]pyrazine-8-carboxamide]	> 10000
CC#CC(=O)N1CCC[C@H]1c1nc(-c2ccc(Oc3ccccc3)nc2)c2cnccn12 [Example 15, (S)-1-(2-(1-(6-phenoxypyridin-3-yl)imidazo[1,5-a]pyrazin-3-yl)pyrrolidin-1-yl)but-2-yn-1-one]	> 10000
C=CC(=O)N1CCCC[C@H]1c1nc(-c2ccc(C(=O)Nc3ccccn3)cc2)c2c(C3CC3)nccn12 [Example 191, (S)-4-(3-(1-acryloylpiperidin-2-yl)-8-cyclopropylimidazo [1,5-a]pyrazin-1-yl)-N-(pyridin-2-yl)benzamide]	> 10000
C=CC(=O)N1CC[C@@H](c2nc(-c3ccc(Oc4cccc(OC)c4F)cc3)c3c(CC)nccn23)C1 [Example 106, (R)-1-(3-(8-ethyl-1-(4-(2-fluoro-3-methoxyphenoxy)phenyl)imidazo[1,5-a]pyrazin-3-yl)pyrrolidin-1-yl)prop-2-en-1-one]	< 10
C=CC(=O)N1CC[C@@H](c2nc(-c3ccc(Oc4cccc(OC)c4F)cc3)c3cncc(OCCOC)n23)C1 [Example 104, (R)-1-(3-(1-(4-(2-fluoro-3-methoxyphenoxy)phenyl)-5-(2-methoxyethoxy)imidazo[1,5-a]pyrazin-3-yl)pyrrolidin-1-yl)prop-2-en-1-one]	< 10
C=CC(=O)N1CCC[C@H]1c1nc(-c2ccc(C(=O)Nc3ccccn3)cc2)c2c(C)ncc(C)n12 [Example 174, (S)-4-(3-(1-acryloylpyrrolidin-2-yl)-5,8-dimethylimidazo [1,5-a]pyrazin-1-yl)-N-(pyridin-2-yl)benzamide]	< 10
CC#CC(=O)N1CCCC[C@H]1c1nc(-c2ccc(C(=O)Nc3ccccn3)cc2)c2c(C3CC3)nccn12 [Example 192, (S)-4-(3-(1-(but-2-ynoyl)piperidin-2-yl)-8-cyclopropylimidazo[1,5-a]pyrazin-1-yl)-N-(pyridin-2-yl)benzamide]	> 10000
CC#CC(=O)N1CC[C@@H](c2nc(-c3ccc(Oc4cccc(OC)c4F)cc3)c3c(C(C)C)nccn23)C1 [Example 112, (R)-1-(3-(1-(4-(2-fluoro-3-methoxyphenoxy)phenyl)-8-isopropylimidazo[1,5-a]pyrazin-3-yl)pyrrolidin-1-yl)but-2-yn-1-one]	> 10000
C=CC(=O)N1CCC[C@H]1c1nc(-c2ccc(C(=O)Nc3ccccn3)cc2)c2c(C3CC3)nccn12 [Example 190, (S)-4-(3-(1-acryloylpyrrolidin-2-yl)-8-cyclopropylimidazo [1,5-a]pyrazin-l-yl)-N-(pyridin-2-yl)benzamide]	> 10000
C=CC(=O)N1CCC[C@@H](c2nc(-c3ccc(C(=O)Nc4ccccn4)cc3)c3c(C)ncc(C)n23)C1 [Example 184, (R)-4-(3-(1-acryloylpiperidin-3-yl)-5,8-dimethylimidazo [1,5-a]pyrazin-1-yl)-N-(pyridin-2-yl)benzamide]	< 10

biological target: T1, BTK; experiment: biochemical; settings: not given

Compound	IC50 [nM]
C=CC(=O)N1CCCC[C@H]1c1nc(-c2ccc(Oc3cccc(OC)c3F)cc2)c2c(C)ncc(C)n12 [Example 80, (S)-1-(2-(1-(4-(2-fluoro-3-methoxyphenoxy)phenyl)-5,8-dimethylimidazo[1,5-a]pyrazin-3-yl)piperidin-1-yl)prop-2-en-1-one]	10 to 100
CC#CC(=O)N1CC[C@@H](c2nc(-c3ccc(Oc4cccc(OC)c4F)cc3)c3c(CF)nccn23)C1 [Example 120, (R)-1-(3-(1-(4-(2-fluoro-3-methoxyphenoxy)phenyl)-8-(fluoromethyl)imidazo[1,5-a]pyrazin-3-yl)pyrrolidin-1-yl)but-2-yn-1-one]	10 to 100
CC#CC(=O)N1CCC[C@H]1c1nc(-c2ccc(COc3cccc(OC)c3F)cc2)c2cnccn12 [Example 160, (S)-1-(2-(1-(4-((2-fluoro-3-methoxyphenoxy)methyl)phenyl)imidazo[1,5-a]pyrazin-3-yl)pyrrolidin-1-yl)but-2-yn-1-one]	1000 to 10000
C=CC(=O)N1CC[C@@H](c2nc(-c3ccc(Oc4cccc(OC)c4F)cc3)c3c(C(C)C)nccn23)C1 [Example 111, (R)-1-(3-(1-(4-(2-fluoro-3-methoxyphenoxy)phenyl)-8-isopropylimidazo[1,5-a]pyrazin-3-yl)pyrrolidin-1-yl)prop-2-en-1-one]	1000 to 10000
